One experiment has as its system T1, UBE1.
T1 construct: purchased Boston Biochem
Put plainly: Gel-based ubiquitylation assay (UBE2T/GST-FANCLRING), autoubiquitylation of UBE1. In kind it is biochemical. Particulars: compound 100 μM; Western blot probed for biotin. Background: In western blotting, separated proteins are transferred to a membrane and probed.

The subject of another experiment is T2, UBE2D1 / GST-RNF8.
T2 construct: His6 (N); made in house; host or cells: E. coli Rosetta (DE3)
Description: Gel-based ubiquitylation assay, E2 = UBE2D1, E3 = GST-RNF8. In kind it is biochemical. Particulars: 10 min at 37 °C, Western blot. The procedure:
(§1) Figure 2 Gel-based ubiquitylation assays with confirmed HTRF hits. […] Western blots (WB) probed for GST or biotin as labeled. Reactions contained 20 nM His6-UBE1, 50 nM E2, 250 nM GST-E3, 500 nM biotinylated ubiquitin: (a) E2 = UBE2T, E3 = GST-FANCLRING, 30 min of reaction at 37 °C; (b) E2 = UBE2D1, E3 = GST-FANCLRING, 30 min of reaction at 37 °C; and (c) E2 = UBE2D1, E3 = GST-RNF8, 10 min of reaction at 37 °C.
A further ubiquitylation assay was performed with an alternative E3, RNF8, which also plays important roles in the DDR.[14] In contrast to GST-FANCLRING, long polyubiquitin chains were attached to GST-RNF8 by UBE2D1 (Figure 2c).
(§2) Purified protein was concentrated using a Vivaspin-6 concentrator with a 10 kDa MW cut-off (Vivascience) and flash-frozen in small aliquots for storage at […]
(§3) Cy5 labelling of ubiquitin. To a 5 mg/mL solution of recombinant human ubiquitin (Boston Biochem) in 0.1 M NaHCO3 pH 8.3, was added a 4-fold molar excess of Cyanine5 NHS ester (Lumiprobe). The reaction was incubated at 23 °C for 4 hours in the dark. The protein was separated from unreacted dye by passage through a PD-10 desalting column (GE Healthcare) equilibrated with PBS. Purified protein was concentrated using a Vivaspin-6 concentrator with a 3 kDa MW cut-off (Vivascience) and flash-frozen in small aliquots for storage […]
(§4) Homogeneous Time-Resolved Fluorescence (HTRF) Assay. GST-FANCLRING (200 nM) was incubated with anti-GST Tb (CisBio, #61GSTTL) (2.5 ng final) at room temperature for 30 minutes in assay buffer (50 mM Tris-HCl pH 8.0, 1 mM TCEP, 5 mM MgCl2, 0.005% Tween-20). Meanwhile, 10 μL of UBE2T in assay buffer (or assay buffer alone for no enzyme controls) was incubated in a white 384-well plate (Corning) with 20 nL DMSO or compound in DMSO. After 30 minutes, the GST-RINGRING solution was added to an equal volume solution containing His-UBE1 (Boston Biochem) (16 nM), Cy5-ubiquitin (400 nM), ATP (0.8 mM) in assay buffer. 10 μL of this solution was immediately added to each well of the 384 -well plate containing UBE2T or buffer. F inal concentrations: His -UBE1 (4 nM), UBE2T (6 nM), GST -RINGRING (50 nM), Cy5-ubiquitin (100 nM), ATP (0.2 mM), compound (10 or 20 μM) in 0.1 %
(§5) (v/v) DMSO. After a 10 minute incubation at 23 °C, 5 µL of a 50 mM EDTA solution were added to each well to stop the reaction. Signal was measured at λEx 340 nm and λEm 665 nm and 620 nm using a PHERAstar FS plate reader
(§6) (BMG Labtech). A ratio was calculated as [λEm(665)/λEm(620)] × 104 for each well and this was used to determine the percent inhibition for test compounds.
(§7) Gel-based ubiquitylation assays. Assays were carried out in a total volume of 10 µL containing 20 nM His6-UBE1 (Boston Biochem), 50 nM UBE2T, 250 nM GST-E3 and 500 nM biotinylated ubiquitin (Boston Biochem) in buffer (50 […]
(§8) Reaction mixtures were incubated for the indicated time at 37 °C and stopped by the addition of 2X reducing SDS -PAGE sample buffer, separated on NuPAGE Novex 4 –12% Bis/Tris gradient gels (Invitrogen) and visualized by Western blotting using the indicated antibodies (Table S3).
Cell culture. U2OS cells were cultured at 37 °C in a humidified atmosphere and 5% (v/v) CO2 in Dulbecco's Modified Eagle Medium (DMEM; Sigma-Aldrich) supplemented with 10% (v/v) fetal bovine serum (FBS), 100 units/ml of penicillin, […] of streptomycin and 292 μg/mL L-glutamine.
Cell extract preparation and immunoblotting. U2OS cells were lysed in buffer containing 50 mM Tris-HCl pH 7.5, 2% SDS, 10 mM NEM, cocktail protease inhibitor (Roche) and phosphatase inhibitor cocktail followed by sonication 100 µg of extracts were boiled for 5 mins at 95 °C in 5X loading buffer and loaded onto NuPAGE Novex 4–12% Bis/Tris gradient gels
(Invitrogen), or NuPAGE Novex 3-8% Tris/Acetate gradient gels (Invitrogen) for detection of mUb-FANCD2. After separation the gels were transferred to PVDF and the membranes were blocked with Tris-buffered saline containing 0.1% (v/v) Tween-20 (TBST) and 5% (v/v) bovine serum albumin (BSA) and […]

The test system of the next experiment is T3, UBE2D1.
T3 construct: His6 (N); made in house; host or cells: E. coli Rosetta (DE3)
Put plainly: Gel-based ubiquitylation assay (UBE2D1/GST-FANCLRING), ubiquitylated UBE2D1 species. Format: biochemical. The settings on record: E2 = UBE2D1, E3 = GST-FANCLRING; 30 min at 37 °C. Here is the method: as §1
(§9) In order to explore the selectivity of CU1, CU2, CU9, CU10, and CU12, we conducted a counter-screen against other E2 and E3 combinations. Since members of the UBE2D family of E2s are known to ubiquitylate multiple substrates in vitro,[13] a ubiquitylation assay featuring UBE2D1 and GST-FANCLRING was performed. With UBE2D1, multiple ubiquitylated GST-FANCLRING species could be observed (Figure 2b).
as §2
Cy5 labelling of ubiquitin. […]
Homogeneous Time-Resolved Fluorescence (HTRF) Assay. […]
(v/v) DMSO. […] Signal was measured at λEx 340 nm and λEm 665 nm and 620 nm using a PHERAstar FS plate reader
(BMG Labtech). A ratio was calculated as [λEm(665)/λEm(620)] × 104 for each well and this was used to determine the percent inhibition for test compounds. […]

The next experiment has as its system T4, UBE2D1 / GST-FANCLRING
T4 construct: the RING domain (residues 275–375) of the E3 FANCL (FANCLRING); His6 (N); made in house; host or cells: E. coli Rosetta (DE3)
Put plainly: Gel-based ubiquitylation assay, E2 = UBE2D1, E3 = GST-FANCLRING
In kind it is biochemical. The settings on record: 30 min at 37 °C, Western blot. The procedure: as §1, §9, §2, §3, §4, §5, §6, §7, §8
Cell culture. […]

Experiment [1] addresses T5, UBE2T/FANCLRING (ubiquitylation of GST-FANCLRING) (Homo sapiens, UniProt Q9NW38).
T5 sequence (Q9NW38 275-375 limits assumed): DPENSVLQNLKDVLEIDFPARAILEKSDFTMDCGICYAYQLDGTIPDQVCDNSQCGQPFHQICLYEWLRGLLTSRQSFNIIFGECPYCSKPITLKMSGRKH
Description: biochemical.
Source text: To identify small-molecule inhibitors of the FA pathway, we developed a high-throughput screen (HTS) compatible assay based on the FA ubiquitylation cascade (see Figure 1a, as well as Figure S1 in the Supporting Information). Given the complexity of the full FA ubiquitylation cascade, we constructed a simplified ubiquitylation reaction that would be robust for HTS purposes yet still provide many relevant protein species for small molecules to interact with. The recombinant protein assay developed used homogeneous time-resolved fluorescence (HTRF) and contained Cy5-labeled ubiquitin, the E1 enzyme UBE1, the E2 enzyme UBE2T, and the RING domain (residues 275–375) of the E3 FANCL (FANCLRING). FANCLRING was used as a surrogate substrate for ubiquitylation in the absence of the FA core and FANCD2/FANCI complexes.
Figure 1 Screening for inhibitors of the FA pathway. (a) Schematic of the HTRF ubiquitylation assay. Ubiquitylation of GST-tagged E3 (FANCLRING) by the E2 (UBE2T) places Cy5-labeled ubiquitin in close proximity to the anti-GST Tb cryptate. Excitation of the Tb cryptate donor results in FRET to the Cy5 acceptor. Simultaneous monitoring of the donor emission (620 nm) and acceptor emission (665 nm) allows for determination of the 665/620 ratio. (b) HTRF screen results showing average inhibition (n = 2) produced by compounds at 20 μM (in-house diversity library; 10 111 compounds) and 10 μM (Selleckchem epigenetic library; 119 compounds). Numbers given in parentheses represent the number of compounds per inhibition threshold.
as §2, §3, §4, §5, §6
Gel-based ubiquitylation assays. Assays were carried out in a total volume of 10 µL containing 20 nM His6-UBE1 (Boston Biochem), 50 nM UBE2T, 250 nM GST-E3 and 500 nM biotinylated ubiquitin (Boston Biochem) in buffer (50

The subject of a further experiment is T6, UBE2T / GST-FANCLRING
T6 construct: the RING domain (residues 275–375) of the E3 FANCL (FANCLRING); His6 (N); made in house; host or cells: E. coli Rosetta (DE3)
Description: Gel-based ubiquitylation assay, E2 = UBE2T, E3 = GST-FANCLRING
Particulars: compound 100 μM, 30 min at 37 °C, Western blot. Format: biochemical.

The next experiment deals with T7, UBE2T.
T7 construct: His6 (N); made in house; host or cells: E. coli Rosetta (DE3)
Put plainly: Gel-based ubiquitylation assay (UBE2T/GST-FANCLRING), blot probed for UBE2T. The settings on record: compound 100 μM; Western blot probed for UBE2T. Format: biochemical.

“Also recorded” adds a separate entry of the source. Where two headings read alike, the source gives them in different places.

As a reminder, the IC50 is the concentration that gives 50% inhibition. The term inhibition denotes how much of the control response was suppressed. Consider `O=C(CCc1ccco1)NS(=O)(=O)c1cccc2ncccc12` [CU10], for which the “autoubiquitylation of UBE1” value in the experiment with UBE1 is “somewhat impaired the autoubiquitylation of UBE1”. The “ubiquitylation of GST-RNF8 and UBE2D1” value with UBE2D1 / GST-RNF8 is listed as “appeared to inhibit the ubiquitylation of all species in the assay”. For the same compound, in the experiment on UBE2D1, the “formation of ubiquitylated UBE2D1 species” value is given as “prevented the formation of any ubiquitylated UBE2D1 species”. The “ubiquitylation of GST-FANCLRING” value in the experiment on UBE2D1 / GST-FANCLRING is “essentially abolished the ubiquitylation of GST-FANCLRING”. The IC50 was 10.9 µM in experiment [1] (library stock, 10-point dose-response, read-out: Primary screen IC50) and 2.1 µM in experiment [1] (printed beside the structures in Figure S3, read-out: IC50 (Figure S3)). For the same compound, the LE in experiment [1] (ligand efficiency = 1.4(–logIC50)/HAC) stood at 0.35. Also, in experiment [1] (read-out: Primary screen % Inhibition (20 M)), the inhibition at 20 µM was 93.8%. In addition, in the experiment with UBE2T / GST-FANCLRING, the “ubiquitylation of GST-FANCLRING (mUb-GST-FANCLRING band)” value was “no ubiquitylation of FANCLRING was observed”. Besides, in the experiment on UBE2T, the “ubiquitylation of UBE2T” value is “prevented the ubiquitylation of UBE2T; also recorded: essentially completely inhibited”.

The record behind these values is article PMC6804243, “Small-Molecule Inhibition of UBE2T/FANCL-Mediated Ubiquitylation in the Fanconi Anemia Pathway” (ACS Chemical Biology, 2019).
